Reference: patent US20260240826A1, “COMPOSITIONS FOR PD-L1 INHIBITION AND METHODS OF USE THEREOF” (ARIZONA BOARD OF REGENTS ON BEHALF OF THE UNIVERSITY OF …, priority 2023, published 2026)
Entries after “also recorded” stand apart in the source; their conditions may differ.

Key:
[1] = system: AP-1 luciferase reporter HaCaT cells; assay: AP-1 reporter luciferase assay in HaCaT keratinocytes; type: cell-based, human; settings: harvest 12 hr after UVB
Experimental: HaCaT cells stably transfected with the TRE-driven luciferase plasmid (“AP-1 luciferase” cells) were seeded in 6-well plates, grown to 70% confluence and serum starved overnight to reduce background signaling. Cells were pretreated with BMS-202 or vehicle (DMSO) for 1 hr, then washed twice with PBS prior to exposure to […]. Cells were then washed once more with PBS before being placed into fresh starvation media with vehicle or BMS-202 until harvest 12 hr later. Cells were lysed in Promega's Cell Culture Lysis Buffer (1×), and a total of 10 μg protein per sample replicate was assayed for luciferase activity according to the manufacturer's instructions for the Luciferase Assay System (Promega) using a TD 20/20 luminometer (Turner Designs). Experimental triplicates were averaged and the means from each independent experiment were analyzed by Student's t-test for statistical significance. Results are representative of three independent experiments.

[2] = system: PD-L1; assay: PD-L1 mRNA in SKH-1 mouse skin by RT-qPCR; type: in vivo; settings: topical 8 mM; 24 hr after SSL
Experimental: (§1) UVB exposure was performed on AP-1 luciferase reporter mice on the SKH-1 genetic background at a dose of 2.75 kJ/m2 using FS40 bulbs (Q-Lab Corporation) as described before with the modification that mice were imaged 24 hr post UVB exposure using whole body bioluminescence instead of 48 hr post UVB using ear punches. SSL irradiation of SKH-1 mice (Charles River Laboratories, strain code 477) at a dose of 90 kJ/m2 UVA/6 kJ/m2 UVB was performed using UVA-340 bulbs (Q-Lab Corporation) as described before.
Total RNA was isolated from SSL-treated mouse skin using the Qiagen RNeasy Mini Kit (Qiagen) according to the manufacturer's protocol. RNA integrity was checked by the RNA 6000 Nano chip kit using Agilent 2100 Bioanalyzer (Agilent Technologies). […] Then, 10 ng of cDNA was used for amplification of target genes by quantitative PCR using the following conditions: 95° C. for 10 min followed by 95° C. for 15 sec and 60° C. for 1 min for a total of 40 cycles performed in the ABI7500 Real-Time PCR System (Applied Biosystems). […] After amplification plots were generated, the Ct values (cycle number at which fluorescence reaches threshold) were recorded and quantified using the comparative (ΔΔCt) Ct method as described in the ABI Prism 7500 sequence detection system user guide. Statistical significance was calculated employing the Student's two-tailed t-test.

[3] = system: PD-L1; assay: SSL-induced PD-L1 expression in HaCaT keratinocytes (mRNA, immunoblot); type: cell-based, human; settings: 24 hr after SSL
Experimental: Human HaCaT immortalized keratinocytes were maintained in DMEM with 10% FBS and 1× penicillin/streptomycin. Cells were authenticated using STR profiling and tested for mycoplasma regularly. Cells were seeded onto […] at a density of ~200 k/dish and grown for 3 days. Prior to treatment, cells were serum starved overnight to enhance the UV responsiveness of signaling. Cells were ~80% confluent at the time of treatment. BMS-202 (10 μM) in DMSO was added to the media 1 hr prior to SSL (pretreatment).
(§2) For SSL treatment, UVA-340 bulbs (Q-Lab Corporation) were used. Before exposure, cells were washed with 1×PBS and then incubated in 4 mL PBS (with 0.01% MgCl2 and 0.01% CaCl2) during irradiation. Cells were exposed to 40 kJ/m2 UVA/2.68 kJ/m2 UVB, then rinsed once more with PBS prior to being placed back into DMEM with 1% FBS+penicillin/streptomycin and vehicle or BMS-202 (post-treatment) and incubated until harvest 24 hr later. Control cells underwent identical processing, except were held in the biosafety cabinet without UV exposure.
Cells were lysed in RIPA containing 1×HALT protease+phosphatase inhibitor cocktail (ThermoFisher Scientific) and 100 mM PMSF and protein concentrations were assessed using BCA assay (Bio-Rad). Mouse epidermal protein lysates for immunoblot analysis were derived from scraped frozen SKH-1 skins as described previously (Blohm-Mangone et al., 2018). […]

[4] = cited from earlier work
[5] = system: PD-L1; assay: SSL-induced PD-L1 protein in primary epidermal keratinocytes (HEK), immunoblot; type: cell-based; settings: human primary keratinocytes (HEK cells)
Experimental: as §2
Adult human epithelial keratinocytes (HEKs) were purchased from Thermo Scientific and maintained in EpiLife media on collagen-coated plates as per the vendor's instructions. Cells were treated with BMS-202 and SSL as described for HaCaT cells.
Cells were lysed in RIPA containing 1×HALT protease+phosphatase inhibitor cocktail (ThermoFisher Scientific) and 100 mM PMSF and protein concentrations were assessed using BCA assay (Bio-Rad). Mouse epidermal protein lysates for immunoblot analysis were derived from scraped frozen SKH-1 skins as described previously (Blohm-Mangone et al., 2018). Twenty μg of protein/lane were loaded onto 10% gels for electrophoresis/immunoblotting using established protocols. […]

[6] = system: AP-1 luciferase SKH-1 reporter mice; assay: AP-1 SKH-1 reporter mouse bioluminescence; type: in vivo; settings: topical 8 mM; imaged 24 hr after UVB
Experimental: as §1
Male transgenic SKH-1 mice heterozygous for the TPA-Response Element (TRE)-driven luciferase transgene (“AP-1 luciferase” mice, n=3) were treated topically on their backs with 200 μL of 8 mM BMS-202 or vehicle control (acetone). For all mice receiving BMS-202, the compound was applied twice before (24 hr and 1 hr) as well as immediately after UV exposure, a dose regimen ensuring efficient target modulation, similar to topical non-sunscreen photoprotection approaches. Mice were injected i.p. with luciferin (potassium salt) stock solution in PBS without magnesium or calcium at a dose of <150 mg/kg of body weight 24 hr after UV exposure and imaged (Lago instrument, Spectral Instruments Imaging) with Aura software analysis.

In the case of `COc1nc(OCc2cccc(-c3ccccc3)c2C)ccc1CNCCNC(C)=O` [BMS-202], the “UVB-induced AP-1 luciferase signal intensity” value [1] is reported as “significant inhibition”, the “PD-L1 mRNA expression in full thickness mouse skin (RT-qPCR)” value [2] is reported as “inhibition” and the “SSL-induced PD-L1 mRNA expression” value [3] is reported as “blocked; also recorded: suppressed dose-dependently”. For the same compound, the “SSL-induced PD-L1 protein expression (immunoblot)” value [3] was “blocked”, the “systemic availability upon topical application” value [4] was “minimal systemic availability” and the “SSL-induced PD-L1 protein upregulation (immunoblot)” value [5] was “reproducible”. The “attenuation in bioluminescent signal intensity (UV-induced AP-1 stress response)” value [6] was roughly 5 fold.
